Test system: 967376-340-R-J2-PDC multicell spheroid viability
Test: Anticancer human tumor 967376-340-R-J2-PDC patient-derived colon adenocarcinoma cell line growth inhibition [PI3K]
Conditions: for IC50: curve of first compound; for viability, T/C: stronger effect = lower value; active = viability on the fitted dose curve at most 10% of control; inactive = the rest
Procedure, shortened: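 Viability of mixed-cell spheroids was determined after exposure to pairwise combinations, one partner being inavolisib, alpelisib, duvelisib or copanlisib. Highest tested concentration matched clinical Cmax where known and 10 microM where not, descending in half-log steps.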

[1] = second compound 0.00316 µM, first compound 0.0316 µM
[2] = second compound 0.00316 µM, first compound 0.1 µM
[3] = second compound 0.00316 µM, first compound 0.316 µM
[4] = second compound 0.00316 µM, first compound 1 µM
[5] = second compound 0.00316 µM, first compound 3.16 µM
[6] = second compound 0.00316 µM, first compound 10 µM
[7] = second compound 0.01 µM, first compound 0.0316 µM
[8] = second compound 0.01 µM, first compound 0.1 µM
[9] = second compound 0.01 µM, first compound 0.316 µM
[10] = second compound 0.01 µM, first compound 1 µM
[11] = second compound 0.01 µM, first compound 3.16 µM
[12] = second compound 0.01 µM, first compound 10 µM
[13] = second compound 0.0316 µM, first compound 0.0316 µM
[14] = second compound 0.0316 µM, first compound 0.1 µM
[15] = second compound 0.0316 µM, first compound 0.316 µM
[16] = second compound 0.0316 µM, first compound 1 µM
[17] = second compound 0.0316 µM, first compound 3.16 µM
[18] = second compound 0.0316 µM, first compound 10 µM
[19] = second compound 0.1 µM, first compound 0.0316 µM
[20] = second compound 0.1 µM, first compound 0.1 µM
[21] = second compound 0.1 µM, first compound 0.316 µM
[22] = second compound 0.1 µM, first compound 1 µM
[23] = second compound 0.1 µM, first compound 3.16 µM
[24] = second compound 0.1 µM, first compound 10 µM
[25] = second compound 0.316 µM, first compound 0.0316 µM
[26] = second compound 0.316 µM, first compound 0.1 µM
[27] = second compound 0.316 µM, first compound 0.316 µM
[28] = second compound 0.316 µM, first compound 1 µM
[29] = second compound 0.316 µM, first compound 3.16 µM
[30] = second compound 0.316 µM, first compound 10 µM
[31] = second compound 1 µM, first compound 0.0316 µM
[32] = second compound 1 µM, first compound 0.1 µM
[33] = second compound 1 µM, first compound 0.316 µM
[34] = second compound 1 µM, first compound 1 µM
[35] = second compound 1 µM, first compound 3.16 µM
[36] = second compound 1 µM, first compound 10 µM
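Note: spheroids exposed to agents for 7 days before read-out.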
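Throughout, for viability, T/C: luminescence used as surrogate of cell viability.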

CCCS(=O)(=O)Nc1ccc(F)c(C(=O)c2c[nH]c3ncc(-c4ccc(Cl)cc4)cc23)c1F + COc1c(OCCCN2CCOCC2)ccc2c3n(c(=NC(=O)c4cnc(N)nc4)nc12)CCN3
< 31.6 nM: IC50 (second compound 0.316 µM) | IC50 (second compound 1 µM)
> 10000 nM: IC50 (second compound 0.00316 µM) | IC50 (second compound 0.01 µM) | IC50 (second compound 0.0316 µM) | IC50 (second compound 0.1 µM)
inactive: viability, T/C [1] 94.8% | viability, T/C [2] 94.7% | viability, T/C [3] 82.8% | viability, T/C [4] 101% | viability, T/C [5] 74.3% | viability, T/C [6] 59.6% | viability, T/C [7] 104% | viability, T/C [8] 78.9% | viability, T/C [9] 81.8% | viability, T/C [10] 73.6% | viability, T/C [11] 90% | viability, T/C [12] 61.8% | viability, T/C [13] 68.1% | viability, T/C [14] 63.4% | viability, T/C [15] 73.8% | viability, T/C [16] 79% | viability, T/C [17] 69.7% | viability, T/C [18] 69.1% | viability, T/C [19] 63.2% | viability, T/C [20] 58.5% | viability, T/C [21] 77% | viability, T/C [22] 51.1% | viability, T/C [23] 63% | viability, T/C [24] 54% | viability, T/C [25] 39.4% | viability, T/C [26] 36.5% | viability, T/C [27] 57.1% | viability, T/C [28] 34.6% | viability, T/C [29] 68.1% | viability, T/C [30] 58.8% | viability, T/C [31] 31.6% | viability, T/C [32] 41.6% | viability, T/C [33] 25.8% | viability, T/C [34] 46.1% | viability, T/C [35] 41% | viability, T/C [36] 34.8%

C[C@@H](NC(=O)c1ncnc(N)c1Cl)c1ncc(C(=O)Nc2cc(C(F)(F)F)c(Cl)cn2)s1 + COc1c(OCCCN2CCOCC2)ccc2c3n(c(=NC(=O)c4cnc(N)nc4)nc12)CCN3
< 31.6 nM: IC50 (second compound 0.316 µM) | IC50 (second compound 1 µM)
> 10000 nM: IC50 (second compound 0.00316 µM) | IC50 (second compound 0.01 µM) | IC50 (second compound 0.0316 µM) | IC50 (second compound 0.1 µM)
inactive: viability, T/C [1] 94.3% | viability, T/C [2] 86.9% | viability, T/C [3] 80.6% | viability, T/C [4] 89.7% | viability, T/C [5] 120% | viability, T/C [6] 123% | viability, T/C [7] 93.2% | viability, T/C [8] 84.5% | viability, T/C [9] 91.9% | viability, T/C [10] 100% | viability, T/C [11] 112% | viability, T/C [12] 91.3% | viability, T/C [13] 67.7% | viability, T/C [14] 77.1% | viability, T/C [15] 71.9% | viability, T/C [16] 63% | viability, T/C [17] 93.3% | viability, T/C [18] 107% | viability, T/C [19] 66.6% | viability, T/C [20] 51.5% | viability, T/C [21] 70.1% | viability, T/C [22] 62.7% | viability, T/C [23] 62.8% | viability, T/C [24] 70.2% | viability, T/C [25] 49% | viability, T/C [26] 49.6% | viability, T/C [27] 49.2% | viability, T/C [28] 43.2% | viability, T/C [29] 56.6% | viability, T/C [30] 62.6% | viability, T/C [31] 43% | viability, T/C [32] 33% | viability, T/C [33] 38.5% | viability, T/C [34] 38.1% | viability, T/C [35] 45.7% | viability, T/C [36] 45%

Cn1ncnc1[C@H]1c2n[nH]c(=O)c3cc(F)cc(c23)N[C@@H]1c1ccc(F)cc1 + COc1c(OCCCN2CCOCC2)ccc2c3n(c(=NC(=O)c4cnc(N)nc4)nc12)CCN3
inactive: viability, T/C (second compound 0.00316 µM, first compound 0.000316 µM) 102% | viability, T/C (second compound 0.00316 µM, first compound 0.001 µM) 95% | viability, T/C (second compound 0.00316 µM, first compound 0.00316 µM) 76.1% | viability, T/C (second compound 0.00316 µM, first compound 0.01 µM) 97% | viability, T/C [1] 88.7% | viability, T/C [2] 105% | viability, T/C (second compound 0.01 µM, first compound 0.000316 µM) 76.6% | viability, T/C (second compound 0.01 µM, first compound 0.001 µM) 94.9% | viability, T/C (second compound 0.01 µM, first compound 0.00316 µM) 81.1% | viability, T/C (second compound 0.01 µM, first compound 0.01 µM) 73.9% | viability, T/C [7] 80.5% | viability, T/C [8] 87.9% | viability, T/C (second compound 0.0316 µM, first compound 0.000316 µM) 85.2% | viability, T/C (second compound 0.0316 µM, first compound 0.001 µM) 90.4% | viability, T/C (second compound 0.0316 µM, first compound 0.00316 µM) 74.5% | viability, T/C (second compound 0.0316 µM, first compound 0.01 µM) 70.9% | viability, T/C [13] 66.8% | viability, T/C [14] 73.4% | viability, T/C (second compound 0.1 µM, first compound 0.000316 µM) 53.3% | viability, T/C (second compound 0.1 µM, first compound 0.001 µM) 70.4% | viability, T/C (second compound 0.1 µM, first compound 0.00316 µM) 56.5% | viability, T/C (second compound 0.1 µM, first compound 0.01 µM) 53.5% | viability, T/C [19] 62.5% | viability, T/C [20] 56.4% | viability, T/C (second compound 0.316 µM, first compound 0.000316 µM) 42.1% | viability, T/C (second compound 0.316 µM, first compound 0.001 µM) 40.9% | viability, T/C (second compound 0.316 µM, first compound 0.00316 µM) 44.6% | viability, T/C (second compound 0.316 µM, first compound 0.01 µM) 36.2% | viability, T/C [25] 52.7% | viability, T/C [26] 43.2% | viability, T/C (second compound 1 µM, first compound 0.000316 µM) 27.8% | viability, T/C (second compound 1 µM, first compound 0.001 µM) 26.8% | viability, T/C (second compound 1 µM, first compound 0.00316 µM) 39.8% | viability, T/C (second compound 1 µM, first compound 0.01 µM) 55.2% | viability, T/C [31] 32.9% | viability, T/C [32] 26.9%
> 100 nM: IC50 (second compound 0.00316 µM) | IC50 (second compound 0.01 µM) | IC50 (second compound 0.0316 µM) | IC50 (second compound 0.1 µM)
< 0.316 nM: IC50 (second compound 0.316 µM) | IC50 (second compound 1 µM)

Reference: PubChem BioAssay AID1963962 (Molecular Pharmacology Branch, DTP, NCI, 2024)
